# Patent US20160228444A1, “NUCLEOSIDE ANALOGS AND USES THEREOF” (Ramot at Tel-Aviv University Ltd., priority 2015, published 2016)
# “Also recorded” adds a separate entry of the source. Where two headings read alike, the source gives them in different places.
# Tests used:
# TNF-α = experiment: Serum TNF-α in U251 xenograft mice (ELISA); format: in vivo; conditions: co-administration with doxorubicin, FIG. 8C
# Experimental: AN446 was tested in vivo using a xenograft of glioblastoma (U251 cells) in mice.
# pH2AX in U251 cells = experiment: Phosphorylated H2AX (Western blot), 24 or 48 hours; format: cell-based, human; conditions: FIG. 13A
# Experimental: The effects of the abovementioned HDAC inhibitors on DNA damage and repair were then assessed by evaluating changes in levels of phosphorylated histone H2AX (pH2AX), a marker of DNA double-strand breaks, and Rad51, a marker of homologous recombination-guided DNA repair of double-strand breaks [Nagathihalli & Nagaraju, Biochim Biophys Acta 2011, 1816:209-218; Rogakou et al., J Biol Chem 1998, 273:5858-5868].
# U251 and H9C2 cells were treated with the HDAC inhibitors for 24 or 48 hours, and then subjected to Western blot analysis.
# T47D cells = experiment: Median-effect drug interaction, Hoechst viability, 72 h; format: cell-based, human; conditions: for IC50: Homo sapiens
# Experimental: (§1) The ratios of the drug combination were based on the ratio of their IC50 of each drug alone. Cell viability was determined by MTT assay, as described hereinabove. The drugs were added to the cells and incubated for 72 h.
# (§2) Drug interaction in adherent cells was evaluated as above except that the viability was determined by Hoechst assay.
# MDA-231 cells = experiment: as above; format: cell-based, human; conditions: for IC50: Homo sapiens
# Experimental: as §1, §2
# [1] = system: NCI-N87 gastric carcinoma cells; experiment: as above; format: cell-based, human; conditions: for IC50: Homo sapiens
# Experimental: as §1, §2
# [2] = system: murine mammary carcinoma 4T1; experiment: FACS viability, annexin V-FITC / PI; format: cell-based; conditions: AN446 24 h; 200 nM Dox 5 h; combination compared to Dox alone; FIG. 1C
# Experimental: (§3) Cell viability by flow cytometry analysis (FACS) analysis was determined using the Mebcyto apoptosis kit (MBL-Japan). The cell lines 4T1, U251 (2×10^5 cells/well), astrocytes and the cardiomyoblastic cell line H9C2 (5×10^5 cells/well) were seeded in six-well plates. Following treatment they were trypsinized, washed with PBS, resuspended in […] of binding buffer and double-stained with annexin V-FITC and propidium iodide (PI) according to the manufacturer's instructions. The stained cells were subjected to FACS analyses (Calibur cytometer, Becton Dickinson) where 30,000 cells were allowed to flow for each determination point and the percentage of cells in each state (viability or death) was defined by their distribution in fluorescence dot-plots using WinMdi 2.8 software (Scripps Research Institute, La-Jolla, USA).
# (§4) The apoptotic effect of AN446, Dox and their combination was evaluated in U251 and 4T1 cancer cells, and in the non-cancerous rat cardiomyoblast cell line (H9C2) and in primary rat astrocytes, using procedures previously described for AN7 [Tarasenko et al., Invest New Drugs 2012, 30:130-143].
# [3] = system: U251 MG human glioma cells; experiment: FACS viability, annexin V-FITC / PI; format: cell-based
# Experimental: as §3, §4
# HO-1 = HO-1 protein and mRNA in tumor and heart of xenograft mice (Western blot, qRT-PCR); format: in vivo; conditions: heart
# Experimental: (§5) Tumors and hearts of the mice were rapidly removed, frozen on dry ice and kept at −70° C. Tissue was then homogenized and RNA and proteins extracted using the NucleoSpin® RNA/Protein kit according to the manufacturer's protocol (Macherey-Nagel, GmbH & Co KG).
# (§6) Total RNA ([…]) was primed by oligo dT and reverse-transcribed by Verso cDNA kit according to the manufacturer's protocol (Thermo Scientific). Analyses of qPCR were performed with Kapa Sybr® Fast (Kapa Biosystems) on a Step One Plus thermocycler (Applied Biosystems). The comparative threshold method was used to calculate the relative gene expression. Values were normalized against glyceraldehyde 3-phosphate dehydrogenase (GAPDH). Expression of the GAPDH mRNA in each individual sample was used to normalize the dataset. The sequences of the primers were as follows: […]
# (§7) Protein levels in the samples were determined with the BCA protein assay kit (Pierce). The samples were subjected to Western blot analyses. The expression of proteins was visualized using their specified primary antibodies followed by the secondary IgG IRDye® 680DX antibody. Each detected band was quantified using the Odyssey Infrared Imaging System (LI-COR Biosciences) and normalized to the level of actin. The fold increase of a specific protein was determined by the ratio of the band intensity obtained from treated and untreated samples.
# The effect of the drugs on the expression of genes associated with cell survival and death was examined by following changes in transcription and protein expression in tissue samples taken from the mice with glioblastoma xenografts. Heme oxygenase (HO-1) is known to play a protective role in the heart, whereas, in many cancers it is expressed and promotes growth and survival of neoplastic cells.
# IL-6 = experiment: LPS-induced IL-6 secretion by normal human astrocytes (sandwich-ELISA); format: cell-based; conditions: 20 μM, LPS 1 μg/ml 24 hours, FIG. 16
# Experimental: Normal human astrocytes (NHA) were treated with 20 μM AN446, and lipopolysaccharide (1 μg/ml) was then added for 24 hours, and the supernatants of the cultured cells were collected. IL-6 concentrations in cell culture supernatants were quantified by sandwich-ELISA using specific pairs of mAb antibodies (R&D).
# bFGF = bFGF protein and mRNA in tumor and heart of xenograft mice (Western blot, qRT-PCR); format: in vivo; conditions: for expression of mouse bFGF protein in the heart: FIG. 4D; for expression of bFGF in tumors / bFGF mRNA in the tumor: tumor; for bFGF mRNA in the tumor: FIG. 6
# Experimental: as §5, §6, §7
# The pro-angiogenic factors basic fibroblast growth factor (bFGF) and vascular endothelial growth factor (VEGF) are potent angiogenic stimulators. The expression of bFGF in the tumor and in the heart was evaluated by Western blot and qRT-PCR analyses and expression of VEGF by IHC.
compound,measurement,setting,value
"CCCC(CCC)C(=O)Nc1nc2c(ncn2COCCOC(=O)C(CCC)CCC)c(=O)[nH]1 [AN446, N-valproyl-9-(2-valproyloxy)ethoxymethyl-guanine]",doxorubicin-induced rise in serum levels of TNF-α,TNF-α,prevented a doxorubicin-induced rise in serum levels of TNF-α
same,pH2AX levels in U251 cancer cells,pH2AX in U251 cells,considerably more effective than the other HDAC inhibitors at increasing pH2AX levels after 48 hours
same,CI (combination index with paclitaxel),T47D cells,1.4
same,IC50,"T47D cells; read-out: com IC50, T47D, in combination with Dox",5.2 µM
same,IC50,"T47D cells; read-out: com IC50, T47D, in combination with paclitaxel",13.6 ± 0.6 µM
same,IC50,"T47D cells; single agent, Table 2",21.7 µM
same,IC50,"T47D cells; single agent, Table 3",23.6 ± 0.6 µM
same,IC50,"MDA-231 cells; MDA-MB-231, MDA-231, in combination with Dox, read-out: com IC50",17 µM
same,IC50,"MDA-231 cells; MDA-MB-231, MDA-231, in combination with paclitaxel, read-out: com IC50",14 ± 0.3 µM
same,IC50,"MDA-231 cells; MDA-MB-231, MDA-231, single agent, Table 2, read-out: IC50",38 µM
same,IC50,"MDA-231 cells; MDA-MB-231, MDA-231, single agent, Table 3, read-out: IC50",37.8 ± 1.1 µM
same,CI (combination index with paclitaxel),MDA-231 cells; MDA-231,0.8
same,IC50,"[1]; NCI-N87, NCI-N87, single agent, Table 2",20 ± 3 µM
same,IC50,"[1]; NCI-N87, NCI-N87, single agent, Table 3",20 ± 3 µM
same,IC50,"[1]; NCI-N87, read-out: com IC50, NCI-N87, in combination with Dox",6 µM
same,IC50,"[1]; NCI-N87, read-out: com IC50, NCI-N87, in combination with paclitaxel",9.1 ± 0.4 µM
same,CI (combination index with paclitaxel),[1]; NCI-N87,0.76
same,viability / mortality of 4T1 cells,[2],significantly enhanced the mortality
same,cell death in U251 glioblastoma cells,"[3]; 24, 48 or 72 hours, each inhibitor at its U251 IC50, FIG. 9, listed as valprostat","effective at inducing cell death in glioblastoma cells after 24, 48 or 72 hours; also recorded: particularly more effective than the other tested HDAC inhibitors at inducing cell death after 24 hours"
same,viability / mortality of U251 cells,"[3]; AN446 24 h, 200 nM Dox 5 h, combination compared to Dox alone, FIG. 1C",significantly enhanced the mortality
same,therapeutic index (ratio of cancer cell mortality to cardiomyoblast mortality),"[3]; U251 vs H9C2, at each time point (24, 48, 72 hours), FIG. 11",more than 2
same,HO-1 expression in the heart,HO-1; co-treatment with Dox,increased the expression of this enzyme to a significantly higher level
same,"HO-1 mRNA in the heart, elevation of basal expression level",HO-1; co-treatment with Dox,3.89±0.35 fold
same,HO-1 expression in the heart (decrease),"HO-1; single agent, FIGS. 4D, 4E",did not significantly change
same,lipopolysaccharide-induced secretion of IL-6 by human astrocytes,IL-6,inhibited
same,expression of mouse bFGF protein in the heart,bFGF; co-treatment with Dox,significantly increased its expression to a level higher than that observed in naive or vehicle-treated mice
same,expression of mouse bFGF protein in the heart,bFGF; single agent,unchanged
same,expression of bFGF in tumors,bFGF; combination with Dox,further diminished
same,bFGF mRNA in the tumor,bFGF; combined treatment with Dox,suppressed it significantly further
same,bFGF mRNA in the tumor,bFGF; single agent,significantly reduced the bFGF mRNA
same,expression of bFGF in tumors,"bFGF; single agent, FIGS. 4A, 4B",decreased significantly
